# Measurements taken from US5750531A, “Pyrimidine derivatives and processes for the preparation thereof” (Yuhan Corporation, priority 1994, dated 1998).
# Test system: gastric secretion
# Assay: Inhibition of gastric secretion (pylorus ligation, Shay method)
# Assay type: in vivo, Male Sprague-Dawley rats
# Details: 20 mg/kg intraduodenally, 5 hours; for Rel. Conc.: acid concentration relative to omeprazole; for Relative Acid Output: acid output relative to omeprazole; for Rel. Vol.: gastric juice volume relative to omeprazole
# Experimental: Inhibition of gastric secretion […] Under ether anesthesia, the abdomen was incised, and the pylorus was ligated. […] After closing the abdominal cavity, the rats were placed for 5 hours and then killed by cervical dislocation. The stomach was extracted to obtain gastric juice. The gastric juice was centrifuged at 1,000 g to remove precipitates. The amount and acidity of the gastric juice were measured. Relative volumes, relative acid concentrations and relative acid outputs of the test compounds were calculated from equations(I), (II) and (III) and the results are shown in Table 2. […] Group 3) (II) […] (III)
Compound,Rel. Conc.,Relative Acid Output,Rel. Vol.
"Cc1cc(N2CCc3ccccc3C2C)nc(N(C)c2ccccc2)n1.Cl (stereo not shown) [Example 4, 6-methyl-2-(N-methylphenylamino)-4-(1-methyl-1,2,3,4-tetrahydroisoquinolin-2-yl)pyrimidine hydrochloride]",0.56,0.87,0.99
"CCCc1cc(N2CCc3ccccc3C2C)nc(N(C)c2ccccc2)n1.Cl (stereo not shown) [Example 11, 2-(N-methylphenylamino)-4-(1-methyl-1,2,3,4-tetrahydroisoquinolin-2-yl)-6-propylpyrimidine hydrochloride]",0.41,0.82,0.99
"CCc1cc(N2CCc3ccccc3C2C)nc(N(C)c2ccccc2)n1.Cl (stereo not shown) [Example 7, 6-ethyl-2-(N-methylphenylamino)-4-(1-methyl-1,2,3,4-tetrahydroisoquinolin-2-yl)pyrimidine hydrochloride]",0.09,0.48,0.51
"Cc1nc(N2CCc3ccccc3C2C)nc(N(C)c2ccccc2)c1C.Cl (stereo not shown) [Example 71, 5,6-dimethyl-4-(N-methylphenylamino)-2-(1-methyl-1,2,3,4-tetrahydroisoquinolin-2-yl)pyrimidine hydrochloride]",–,0.16,0.25
"Cc1nc(N2CCc3ccsc3C2C)nc(N(C)c2ccccc2)c1C.Cl (stereo not shown) [Example 79, 5,6-dimethyl-4-(N-methylphenylamino)-2-(7-methyl-4,5,6,7-tetrahydrothieno[2,3-c]pyridin-6-yl)pyrimidine hydrochloride]",1.28,0.49,0.54
"CCc1nc(N2CCc3ccccc3C2C)nc(Nc2ccc(F)cc2C)c1C.Cl (stereo not shown) [Example 80, 5-methyl-6-ethyl-4-(2-methyl-4-fluorophenylamino)-2-(1-methyl-1,2,3,4-tetrahydroisoquinolin-2-yl)pyrimidine hydrochloride]",0.29,0.44,0.32
"Cc1cc(N2CCc3ccccc3C2)nc(N(C)c2ccccc2)n1.Cl [Example 36, 6-methyl-2-(N-methylphenylamino)-4-(1,2,3,4-tetrahydroisoquinolin-2-yl)pyrimidine hydrochloride]",0.05,0.41,0.65
"Cc1nc(N2CCc3ccccc3[C@H]2C)nc(N(C)c2ccccc2)c1C.Cl [Example 72, (R)-5,6-dimethyl-4-(N-methylphenylamino)-2-(1-methyl-1,2,3,4-tetrahydroisoquinolin-2-yl)pyrimidine hydrochloride]",0.16,0.25,0.34
"Cc1nc(N2CCc3ccccc3[C@@H]2C)nc(N(C)c2ccccc2)c1C.Cl [Example 73, (S)-5,6-dimethyl-4-(N-methylphenylamino)-2-(1-methyl-1,2,3,4-tetrahydroisoquinolin-2-yl)pyrimidine hydrochloride]",–,0.13,0.18
"Cc1nc(N2CCc3ccccc3C2)nc(N(C)c2ccccc2)c1C.Cl [Example 76, 5,6-dimethyl-4-(N-methylphenylamino)-2-(1,2,3,4-tetrahydroisoquinolin-2-yl)pyrimidine hydrochloride]",0.17,0.33,0.28
"CC1c2ccccc2CCN1c1nc(N(C)c2ccccc2)nc2c1CCCC2.Cl (stereo not shown) [Example 33, 2-(N-methylphenylamino)-4-(1-methyl-1,2,3,4-tetrahydroisoquinoline-2-yl)-5,6,7,8-tetrahydroquinazoline hydrochloride]",1.13,0.94,0.93
"CCc1nc(Nc2ccc(F)cc2C)nc(N2CCc3ccsc3C2C)c1C.Cl (stereo not shown) [Example 56, 5-methyl-2-(2-methyl-4-fluorophenylamino)-4-(7-methyl-4,5,6,7-tetrahydrothieno[2,3-c]pyridin-6-yl)-6-ethylpyrimidine hydrochloride]",0.08,0.08,0.01
